Data set [1] deals with MEF Mfn1−/− or Mfn2−/− cultures. The following applies: Mfn1 or Mfn2 knockout; cited from earlier work.
For data set [2], the system named is optic nerve crush injury (CNS injury model). Briefly: Optogenetic stimulation of RGCs and local field potential (LFP) recordings in superior colliculus after optic nerve crush. The conditions noted are these: for eye-evoked RMS LFP amplitude in superior colliculus: six weeks after optic nerve crush. Format: in vivo, mice. The protocol: Two weeks before LFP recordings, AAV overexpressing a fusion of channelrhodopsin 2 and mCherry was injected into the injured eye of the mice. […] Blue lines indicated optical stimulation in the injured eye. (B) Eye-evoked root-mean-square (RMS) LFP amplitudes were automatically determined using Spike2 software with customized MATLAB program. Administration of M1 markedly elevated the eye-evoked RMS LFP amplitudes compared with vehicle-treated controls. Combination of phosphatase and tensin homolog (Pten) deletion and M1 treatment further increased the RMS LFP amplitudes after optical stimulations of injured RGCs. Mean±SEM (n=4-5 per group). *P<0.05, one-way ANOVA with Bonferroni post-hoc test.
To record evoked LFP in SC, mice received intravitreal injection of AAV-ChR2-mCherry […]. Six weeks after optic nerve crush injury, we stimulated the injured RGCs by placing an optical fiber with blue laser at 473 nm illuminated at the periphery of the left eye (injured). Evoked LFPs in response to the optical stimuli from ChR2-overexpressing RGCs were recorded in the SC. There were virtually no LFP amplitudes that could be detected from the vehicle-treated mice (FIG. 7A), which was consistent with the histology results. […] Treating the mice with M1 and Pten deletion restored almost 25% of the maximal LFP amplitude compared with uninjured mice.
To optically stimulate the RGCs in vivo, AAV expressing a fusion of channelrhodopsin-2 and mCherry (AAV-ChR2-mCherry) at viral titre of 1×10^13 vg/ml was injected intravitreally into both eyes two weeks before optogenetics experiments. For intravitreal injection, a micropipette was gently inserted into the peripheral retina of the eye, just behind the ora serrata, placed with an angle to avoid damages to the lens. […]
The data recorded from the system was used as digital input signals for synchronization of the optogenetics setup. Data were analyzed offline using spike2 software (Version 8) and customized MATLAB program. Root-mean-square (RMS) amplitudes after optical stimulation was calculated (FIG. 7).

The test system of data set [3] is sciatic nerve crush injury (peripheral nerve injury model). Briefly: Sciatic nerve pinch test after sciatic nerve crush injury. Format: in vivo, C57BL/6 mice. The following applies: 3 days after injury. The method, then: (§1) FIG. 2 depicts an experimental paradigm for assessing the growth-promoting effects of mitochondrial fusion promoter M1 after peripheral nerve injury. Sciatic nerve crush injury was performed on adult male C57BL/6 mice. Immediately after crush, 20-60 μg of mitochondrial fusion promoter M1 was directly applied on top of the crushed site, followed by a total of 6 administrations (i.e. morning and evening administration with at least 8 hours apart). Sciatic nerve pinch test and axon quantification were performed on day 3 post-injury.
FIG. 3 depicts data showing that mitochondrial fusion promoter M1 accelerates in vivo axonal regrowth after sciatic nerve crush injury in adult mice. […] Sciatic nerve pinch test and axon quantification were performed 3 days after injury. […]
(§2) We first confirmed the growth-promoting effects of mitochondrial fusion promoter M1 using sciatic nerve pinch test. The results from sciatic nerve pinch test were subsequently verified by quantifications of GAP-43-positive regenerating axons 3 days after sciatic nerve crush injury.
Following the completion of dosing paradigm of M1, sciatic nerve pinch test was performed on the ipsilateral nerves 3 days after sciatic nerve crush injury. […] The distance (in mm) was recorded from the crushed site to the most distal point of the nerve where initial withdrawal response was generated after pinching (FIG. 3A).

Data set [4] has as its system adult dorsal root ganglion (DRG) neurons. Briefly: Neurite outgrowth assay in primary cultures of axotomized adult DRG neurons. The following applies: 2.5 μM, 17 hours. It counts as cell-based, C57BL/6 mice. The method, then:
FIG. 1 depicts data showing that M1 increases the length of regenerating axons which is directly proportional to the size of mitochondria in DRG neurons. Wildtype adult DRG neurons were treated with M1 at a concentration of 2.5 μM, and 0.1% DMSO was used as vehicle controls. After 17 hours of incubation, cultures were fixed and immunostained with anti-βIII-tubulin antibodies for neurite outgrowth assay. […] Scale bar: 500 μm. […] More than 80 DRG neurons were quantified from each treatment group. Mean±SEM of triplicates. ***P<0.001; Student's t-test. n.s., not significant. CTL, control.
The current study aimed to investigate the therapeutic potential of mitochondrial fusion promoter M1 for treating patients with nerve injuries. First, we examined if mitochondrial fusion promoter M1 could enhance the intrinsic growth capacity of adult neurons, a critical determinant for successful axon regeneration after nerve injuries. We used primary cultures of axotomized dorsal root ganglion (DRG) neurons as an in vitro model to assess the extent of neurite outgrowth after treating the neurons with mitochondrial fusion promoter M1. Primary cultures of DRG neurons were prepared from adult C57BL/6 mice (8-12 weeks old). The DRG neurons were first dissected out, digested with collagenase/dispase II solution (Roche Diagnostics), trypsinized and dissociated mechanically by three flame-polish Pasteur pipettes with different diameters. […]
For neurite outgrowth assay, 30 non-overlapping images were captured at 10× magnifications using Nikon Ni-E epifluorescence microscope equipped with a motorized stage. Total neurite length of each neuron from each condition were automatically measured using WIS-NeuroMath software (Weizmann Institute of Science). At least 250 neurons were quantified from each condition to obtain the average total neurite length. […]

For data set [5], the system named is optic nerve crush injury (CNS injury model). Briefly: Axon regeneration (CTB-555-labelled axons) after optic nerve crush injury. It counts as in vivo, C57BL/6 mice.
The subject of data set [6] is dopaminergic neuron-like SH-SY5Y cells. The following applies: 1-methyl-4-phenyl-pyridinium (MPP+); cited from earlier work.
In data set [7] the test system is retinal ganglion cells (RGCs). Description: Retinal ganglion cell (RGC) survival after optic nerve crush injury (RBPMS staining). Format: in vivo, C57BL/6 mice.
For data set [8], the system named is sciatic nerve crush injury (peripheral nerve injury model). Description: Quantification of GAP-43-positive regenerating axons after sciatic nerve crush injury. Format: in vivo, C57BL/6 mice. The conditions noted are these: 3 days after injury; 5 mm distal to crushed site. The method, then:
as §1
FIG. 3 depicts data showing that mitochondrial fusion promoter M1 accelerates in vivo axonal regrowth after sciatic nerve crush injury in adult mice. Sciatic nerve crush injury was performed on adult C57BL/6 mice (8-12 weeks old). A total of 6 administrations of mitochondrial fusion promoter M1 was directly applied to the crushed site for 3 consecutive days. Sciatic nerve pinch test and axon quantification were performed 3 days after injury. […]
as §2

We go through one compound from patent publication US11992469B2, “Targeting mitochondrial dynamics by mitochondrial fusion promoter M1 as a treatment strategy for nervous system injury” (City University of Hong Kong, priority 2020, dated 2024).

As for `CC(=NNc1c(Cl)cc(Cl)cc1Cl)c1cc(Cl)ccc1O` [M1], in data set [1], the “restoration of mitochondrial fragmentation” value is reported as “completely restored”. The “restored share of maximal LFP amplitude compared with uninjured mice” value in data set [2] (M1 and Pten deletion) is about 25%. Besides, the “eye-evoked RMS LFP amplitude in superior colliculus” value in data set [2] (M1-treated mice) is 59.82±3.6 μV; in data set [2] (Pten-knockout (Pten-KO) and M1-treated mice), 88.36±3.13 μV. Further, the “dose of maximal effect on distal extent of axonal regrowth (pinch test)” value in data set [3] was 20 µg/day. The “increase in most distal axonal regrowth (sciatic nerve pinch test)” value in data set [3] (20-60 μg applied to crushed site, 6 administrations) amounted to 55%. For the same compound, the “cell survival of DRG neurons” value in data set [4] is “no cell survival effect”. In addition, the “mitochondrial size in DRG neurons (distal axons)” value in data set [4] is reported as “increase in mitochondrial size”. Besides, the “increase in neurite outgrowth from adult DRG neurons” value in data set [4] (vs 0.1% DMSO vehicle) is reported as 49%. In addition, the “axon regeneration after optic nerve crush” value in data set [5] (day 14 post-injury, 1 μg intravitreal at days 0 and 7) was “robust axon regeneration”; in data set [5] (day 28 post-injury, 1 μg intravitreal at days 0, 7, 14 and 21), “robust axon regeneration”. Also, the “distance reached by regenerating axons” value is “reach the optic chiasm” in data set [5] (day 28 post-injury) and “reaching superior colliculus” in data set [5] (six weeks after optic nerve crush injury, intravitreal injection). Further, the “protection from MPP+-induced neurotoxicity” value in data set [6] is on record as “protected”. Also, the “RGC survival vs vehicle-treated controls” value in data set [7] (14 days after optic nerve crush injury) and in data set [7] (28 days after optic nerve crush injury) was “more retinal ganglion cells (RGCs) were survived” throughout. For the same compound, the “increase in number of GAP-43-positive regenerating axons vs vehicle controls” value in data set [8] was 2 fold.
